Measured values from patent US9980943B2, “Methods of treating muscular dystrophy” (BOARD OF REGENTS OF THE NEVADA SYSTEM OF HIGHER EDUCATION, …, priority 2013, dated 2018).
Read-outs that look alike come from different tables or passages of the source.

System: α7 integrin (LacZ reporter in α7LacZ+/− myoblasts)
Experiment: qHTS of the LOPAC library and MLSMR (online screen, α7LacZ+/− myoblasts)
Conditions: for activation at 0.307 µM / activation at 1.53 µM / activation at 7.66 µM / activation at 38.3 µM / Emax / EC50: Mus musculus, Myoblast; for activation at 0.307 µM: read-out: Activity at 0.307 uM [%] **; for activation at 1.53 µM: read-out: Activity at 1.530 uM [%] **; for activation at 7.66 µM: read-out: Activity at 7.660 uM [%] **; for activation at 38.3 µM: read-out: Activity at 38.30uM [%] **; for EC50: read-out: Fit LogAC50 (converted)
[1] = 48 h, read-out: Fit Infinite Activity [%]

SMILES | activation at 0.307 µM (48 h) | activation at 1.53 µM (48 h) | activation at 7.66 µM (48 h) | activation at 38.3 µM (48 h) | Emax [1] | EC50 | Emax (read-out: Max Response [%]) | Score (Table 8 Compound data) | Curve Description | Score
COc1cc(NC(=O)CN(C)S(=O)(=O)c2ccc3c(c2)CC(C)N3C(C)=O)cc(OC)c1OC (stereo not drawn) [Compound 145] | 0.302% | 0.181% | 15.7% | 70.5% | 70.5% | 10 µM | 70.5% | – | – | –
CC(=O)c1ccc(N(C(=O)CNC(=O)c2ccco2)C(C(=O)NC2CCCC2)c2ccc(C)o2)cc1 (stereo not drawn) [Compound 146] | -20.8% | -20.9% | 0% | 75.5% | 75.5% | 10 µM | 75.5% | – | – | –
Cc1nnc(NC(=O)CSc2nnc(CCNC(=O)c3ccccc3F)n2C)s1 [Compound 147] | 0.45% | 2.7% | 29.1% | 84.9% | 91.2% | – | 84.9% | – | – | –
COc1ccc(CCNC(=O)Cn2nnc(C(=O)Nc3ccc(Br)cc3)c2N)cc1OC [Compound 148] | -30% | -26.8% | 12.5% | 102% | 110% | – | 102% | – | – | –
C/C(=N\NC(=O)c1cc(C)oc1C)c1ccc2ccccc2c1 [Compound 149] | -0.126% | 8.59% | 37% | 68% | 82.4% | – | 68% | – | – | –
CC(C)c1ccc(NC(=O)CN2C(=O)c3ccccc3S2(=O)=O)cc1 [Compound 150] | 0% | 0.16% | 15.1% | 67.1% | 67.4% | 10 µM | 67.1% | – | – | –
CCCCC(C(=O)NC1CCCC1)N(C(=O)c1snc(C(N)=O)c1N)c1ccc(C)cc1 (stereo not drawn) [Compound 151] | -26.6% | -26% | 2.04% | 63.7% | 65.1% | 10 µM | 63.7% | – | – | –
COc1ccc(S(=O)(=O)Nc2ccc(S(=O)(=O)Nc3nccs3)cc2)cc1 [Compound 152] | -6.73% | 0% | 26.3% | 67.4% | 88.8% | – | 67.4% | – | – | –
Cc1cc(C(=O)Nc2cccc3ccccc23)c(C)o1 [Compound 153] | -20.8% | -14.3% | 26.2% | 66% | 74.5% | – | 66% | – | – | –
CC1(C)Cc2c(cnn2-c2cccc(F)c2)C(NC(=O)CCc2cnccn2)C1 (stereo not drawn) [Compound 154] | -36.1% | -14.4% | 17.9% | 38.9% | 47.5% | – | 38.9% | – | – | –
Cc1c(C(=O)N2CCCCC2)c(S(=O)(=O)Nc2cccc(Br)c2)c(C)n1C [Compound 155] | -32.1% | -31.8% | -9.12% | 60.5% | 60.9% | 10 µM | 60.5% | – | – | –
O=S(=O)(N/C(=N/C1CCCCC1)c1ccccc1F)c1ccccc1 [Compound 156] | 0% | 0% | 22.9% | 65.3% | 67.8% | 10 µM | 65.3% | – | – | –
CCCCN(CCCC)CCNC(=O)c1cn(C)c2ccc(S(=O)(=O)N(C)C3CCCCC3)cc2c1=O [Compound 157] | -0.706% | -3.27% | 17.7% | 67.5% | 68.2% | 10 µM | 67.5% | 42 | – | –
O=[N+]([O-])c1cccc(S(=O)(=O)N2CCN(S(=O)(=O)N3CCOCC3)CC2)c1 [Compound 158] | 0.67% | 0.634% | 26.3% | 65.9% | 70.7% | 10 µM | 65.9% | – | – | –
CC(=O)Nc1ccc(NC(=O)c2cc(=O)c3cc(C)cc(C)c3o2)cc1 [Compound 159] | -4.25% | -1.91% | 17.1% | 106% | 107% | – | 106% | – | – | –
COc1ccc(/C=C(\NC(=O)c2ccc(C)cc2)C(=O)Nc2ccc(C(=O)O)cc2)cc1 [Compound 160] | -2.5% | -3.36% | 16% | 99.8% | 101% | – | 99.8% | – | – | –
O=S(=O)(c1ccccc1)N1CCCC(c2nc(O)c3nnn(Cc4cccc(Cl)c4)c3n2)C1 (stereo not drawn) [Compound 161] | -37% | -17.7% | 22.4% | 48.1% | 55% | – | 48.1% | – | – | –
COc1cccc(NC(=O)c2ccc3c(c2)CCCC3)c1 [Compound 162] | -31.8% | -27.5% | 26.3% | 54.3% | 55.3% | – | 54.3% | – | – | –

SMILES | activation at 0.307 µM (48 h) | activation at 1.53 µM (48 h) | activation at 7.66 µM (48 h) | activation at 38.3 µM (48 h) | Emax [1] | EC50 | Emax (read-out: Max Response [%]) | Score (Table 8 Compound data) | Curve Description | Score
CN(C)CCNc1ncnc2sc(-c3ccccc3)cc12 [Compound 163] | -0.804% | -0.389% | 19.4% | 78.1% | 78.3% | 10 µM | 78.1% | – | – | –
CCCN1C2CCCC1CC(NC(=O)c1cccc([N+](=O)[O-])c1)C2 (stereo not drawn) [Compound 164] | 1.16% | 0.0123% | 22% | 91.6% | 91.8% | 10 µM | 91.6% | – | Partial | 42
O=C(NCCc1ccc(F)cc1)N[C@@H](Cc1ccccc1)C(=O)O [Compound 165] | -20.5% | -20.4% | 0% | 108% | 109% | – | 108% | – | – | –
O=C(CN1CCOCC1)NCc1cc([N+](=O)[O-])ccc1O [Compound 166] | 10.3% | 15.6% | 41.7% | 87.7% | 104% | – | 87.7% | – | – | –
COc1cc(Cl)cc(CN2CCC(CCC(=O)NC3CC3)CC2)c1OC [Compound 167] | -38.2% | -33.5% | 9.56% | 44% | 48.6% | – | 44% | – | – | –
COc1ccccc1C(=O)NCCOc1ccc(C(C)(C)C)cc1 [Compound 168] | – | 0% | 35.8% | 77.8% | 82.9% | – | 77.8% | – | – | –
COc1nccc(NCc2ccccc2)c1C#N [Compound 169] | -18.2% | -21.6% | 0.301% | 64.3% | 64.8% | 10 µM | 64.3% | – | – | –
Cc1ccc(-c2csnn2)cc1 [Compound 170] | 2.36% | 5.33% | 22.2% | 87.6% | 87.8% | 10 µM | 87.6% | – | – | –
Cc1nc2c(cnn2-c2ccccc2)c(=O)n1/N=C/c1ccccc1 [Compound 171] | 10% | 10.2% | 28.1% | 68.4% | 69.5% | 10 µM | 68.4% | – | – | –
CN(C)/C(S)=N/c1cccc(C(F)(F)F)c1 [Compound 172] | 8.95% | 7.22% | 31.2% | 71.2% | 73.8% | 10 µM | 71.2% | – | – | –
CC(C)(C)N/C=C(\C#N)S(=O)(=O)c1ccc(Br)cc1 [Compound 173] | 10.4% | 21.1% | 42.1% | 72.3% | 93% | – | 72.3% | – | – | –
O=C(O)CCCNC(=O)CCn1nnc2ccccc2c1=O [Compound 174] | -21.7% | -16.7% | 13.6% | 74.2% | 83.7% | – | 74.2% | – | – | –
CCNC(=O)COC(=O)c1cc(-c2ccco2)nc2ccccc12 [Compound 175] | -59.9% | -45.5% | 5.39% | 48.1% | 54% | – | 48.1% | – | – | –
COc1cccc(N2C(=O)CC(N3CCc4ccccc4C3)C2=O)c1 (stereo not drawn) [Compound 176] | -22.1% | -16.9% | 5.26% | 95.9% | 96.1% | 10 µM | 95.9% | – | – | –
COC(=O)C1=NNC2(C)C(=O)N(c3ccc(C)cc3)C(=O)C12 (stereo not drawn) [Compound 177] | 1.31% | 0.295% | 16.2% | 71.1% | 71.5% | 10 µM | 71.1% | – | – | –
CCCOc1nc(SCCC)nc2c1cnn2-c1ccccc1 [Compound 178] | -21.2% | -11.3% | 18.9% | 64.3% | 85.3% | – | 64.3% | – | – | –
COc1ccc(O)c(/C=N/NC(=O)c2cc(O)nc3ccccc23)c1 [Compound 179] | -35.4% | -32.2% | 20.9% | 46.8% | 48.4% | – | 46.8% | – | – | –
